In one test the test system is BM neutrophils. The test can be described thus: Apoptosis of BM-isolated mouse neutrophils by annexin-V labelling. Conditions: increasing gliotoxin concentrations. Format: cell-based. Here is the method:
In vivo model of LPS-induced airway inflammation. Peripheral blood neutrophils and BM mature neutrophils from femurs were isolated using Percoll density gradient, as described in Mocsai et al. (2002, Immunity 16:547-558). Intranasal LPS administration in mice and collection of cells from BALF was performed as described in Chignard et al. (2000, Am. J. Physiol. Lung Cell Mol. Physiol. 279:L1083-1090). Mice were treated in accordance with Inserm guidelines in compliance with European animal-welfare regulations. Seven-week-old male C57B1/6 mice, weighing 25-30 g (Charles Rivers), were anesthetized by intra-muscular injection of a mixture of ketamine and xylasine, and then 330 μg/kg of LPS dissolved in 50 μl of saline were deposited intranasally. At different times, animals were killed by an intraperitoneal injection of a lethal dose of sodium pentobarbital (Sanofi) to isolate lung neutrophils. The trachea of each mouse was then cannulated and BAL performed with a syringe and multiple cycles of saline instillation (0.5 ml) and aspiration to obtain a BALF volume of 4 ml. The latter was centrifuged, pelleted cells were collected and differential cell counts made after cytospin centrifugation and staining with Diff-Quik products. BAL neutrophils were isolated by Ficoll density gradient centrifugation. […]

Test [1] deals with neutrophils. Briefly: Neutrophil apoptosis/survival by phosphatidylserine externalization after annexin-V and 7-AAD labeling. The format is cell-based, human. As to conditions: 15 h at 37° C.; anti-Fas mAb 10 ng/ml, gliotoxin 2 mg/ml. Here is the method:
Analysis of apoptosis. Neutrophil apoptosis was triggered by incubating neutrophils at 37° C. alone (constitutive apoptosis) or with anti-Fas mAb (10 ng/ml; Beckman-Coulter) or gliotoxin ([…]; Sigma) (Ward et al. 1999, J. Biol. Chem. 274:4309-4318) for the indicated times. Neutrophil apoptosis was evaluated by phosphatidylserine externalization after annexin-V and 7-AAD labeling (Kantari et al. 2007, Blood 110:4086-4095); mitochondrial depolarization after DiOC6 labeling (Moriceau et al. 2009, J. Immuno1.182:7254-7263); caspase-3 and caspase-8 activities measured by spectrophotometry (Biovision) in neutrophil lysates. In DMF-differentiated-PLB985 cells, apoptosis was triggered by gliotoxin or by rTRAIL (10 ng/ml; RD System) (Yin et al. 2005, Int. J. Biochem. Cell Biol. 37:1696-1708) and caspase-8 and caspase-9 activities were determined after gating on CD11b^+ cells using the Caspase-Glow® assay (Promega). Apoptosis-induced chromatin condensation and DNA fragmentation were assessed, respectively, after DNA staining with the blue fluorescent dye Hoechst (5 mg/ml) and propidium-iodide staining (Goepel et al. 2004, J. Leukoc. Biol. 75:836-843). Carboxyp21 ([…], SEQ ID NO: 24) corresponding to the p21 carboxy-terminus sequence (residues 141-160) and containing a RYIRS carboxy-terminal extension to facilitate its cell entry was synthesized and purified (Genecust). A modified peptide in which the charged amino acids responsible for its binding to PCNA have been changed according to dynamic simulation studies ([…], SEQ ID NO: 25) served as control. The effect of PS-341 (LC Laboratories) and MG132 were tested on neutrophil apoptosis and PCNA expression as indicated.

The conditions of test [2]: report; cited from earlier work.
The test system of test [3] is neutrophils. Conditions: report; cited from earlier work.

For the compound `CN1C(=O)[C@]23CC4=CC=C[C@H](O)[C@H]4N2C(=O)[C@@]1(CO)SS3` [gliotoxin, reference compound], the “Apoptosis of BM neutrophils by annexin-V labelling” value in the test on BM neutrophils was “trigger apoptosis in BM neutrophils in a dose-dependent manner”. The “Increase of annexin-V+ 7-AAD− cells” value in the test with neutrophils [1] was “further enhanced”.
For `CC[C@H](CO)Nc1nc(NCc2ccccc2)c2ncn(C(C)C)c2n1` [roscovitine], the “Inflammation resolution in vivo” value in test [2] is listed as “promotes inflammation resolution in vivo”. In the test with neutrophils [3], the Neutrophil apoptosis result is recorded as “triggers neutrophil apoptosis”.

The values are drawn from US20130059773A1, “COMPOUNDS FOR THE TREATMENT OF INFLAMMATION AND NEUTROPENIA” (priority 2010, published 2013).
